Data published in patent publication US4727086A, “Certain anti-hypertensive 2,3-dihydrobenzofuran compounds” (Adir et Compagnie, priority 1985, dated 1988).

Experiments:
[1] = tested on: coronary artery of the dog; experiment: Contraction-inhibiting activity on the coronary artery of the dog (in vitro); type: cell-based; settings: Canis lupus familiaris, 0.25 h, contraction induced by 100 mM potassium ions, reactivation with 10 and 20 mM calcium ions, 15-minute action, read-out: ED50 (dose capable of inhibiting 50% of the maximum contraction)
Method: Assessment of the Contraction-Inhibiting Activity on the Coronary Artery of the Dog
The inhibiting activity on contraction induced by calcium ions was assessed in vitro on the coronary artery of the dog according to the method described by Godfraind and Miller in Circ. Res. (1983) 52, No. 2, pp. 81-91. Contraction was induced by a solution containing 100 millimoles of potassium ions per liter. The compounds to be examined were then introduced in cumulative doses and after a 15-minute period of action the preparation was reactivated with solutions having a calcium ion concentration of 10 and 20 mM. The dose capable of inhibiting 50% (ED50) of the maximum contraction was assessed.

mongrel dogs = experiment: Haemodynamic effects in vivo in anaesthetised dogs
Method: Haemodynamic Effects In Vivo
The haemodynamic effects were assessed in mongrel dogs weighing from 25 to 30 kg which had been anaesthetised with sodium phenobarbital, had undergone a thoractomy at the 5th left intercostal space and carried electromagnetic rings at the level of the circumflex branch of the left coronary artery and at the level of the ascending aorta. The maximum bradycardic effect (E.B. max.), the mean coronary resistances (C.V.R.M.), the coronary output (C.B.F.M.), and the arterial pressure (P.A.) were measured after the intravenous injection of a dose of 300 μg/kg and 1000 μg/kg of the compounds of Examples 1 and 13.
Table 5 summarises the various results which are expressed as percentage increases (+%) or percentage decreases (-%) in the values in relation to those observed before treatment.

Q: Which IC50 [1] does the source give for `COc1ccc(CCN(C)CCCC2(c3ccccc3)COc3ccc(Cl)cc32)cc1OC` (centres unmarked) [Example 4, 5-chloro-3-phenyl-3-[3-(N-(3,4-dimethoxyphenethyl)-N-methylamino)-propyl]-2,3-dihydrobenzofuran] here?
A: 30 µM

Q: Which IC50 [1] does the source give for `COc1cccc(N2CCN(CCCC3(c4ccccc4)COc4ccc(Cl)cc43)CC2)c1` (centres unmarked) [Example 2, 5-chloro-3-phenyl-3-[3-(4-(3-methoxyphenyl)-1-piperazinyl)-propyl]-2,3-dihydrobenzofuran] here?
A: 10 µM

Q: For `COc1ccc2c(c1)C(CCCN1CCc3cc(OC)c(OC)cc3C1)(c1ccccc1)CO2` (centres unmarked) [Example 7, 5-methoxy-3-phenyl-3-[3-(6,7-dimethoxy-1,2,3,4-tetrahydro-2-isoquinolyl)-propyl]-2,3-dihydrobenzofuran], which IC50 [1] is on record?
A: 6.3 µM

Q: With `COc1ccc2c(c1)C(CCCN(C)CCc1ccc(OC)c(OC)c1)(c1ccccc1)CO2.O=P(O)(O)O` (centres unmarked) [Example 1, 5-methoxy-3-phenyl-3-[3-(N-(3,4-dimethoxyphenethyl)-N-methylamino)-propyl]-2,3-dihydrobenzofuran phosphate] as the compound, how does the IC50 [1] read?
A: 1.7 µM

Q: And the “CBFM (coronary output), % change vs before treatment” value (mongrel dogs; 300 μg/kg intravenous)?
A: +51%

Q: What about the “CRVM (mean coronary resistances), % change vs before treatment” value (mongrel dogs; 300 μg/kg intravenous) of the same compound?
A: -39%

Q: And the “EB max (maximum bradycardic effect), % change vs before treatment” value (mongrel dogs; 300 μg/kg intravenous)?
A: -7%

Q: And the “PA (arterial pressure), % change vs before treatment” value (mongrel dogs; 300 μg/kg intravenous)?
A: -9%

Q: And the “CBFM (coronary output), % change vs before treatment” value (mongrel dogs; 1000 μg/kg intravenous)?
A: +85%

Q: And the “CRVM (mean coronary resistances), % change vs before treatment” value (mongrel dogs; 1000 μg/kg intravenous)?
A: -57%

Q: What about the “EB max (maximum bradycardic effect), % change vs before treatment” value (mongrel dogs; 1000 μg/kg intravenous) of the same compound?
A: -13%

Q: And the “PA (arterial pressure), % change vs before treatment” value (mongrel dogs; 1000 μg/kg intravenous)?
A: -21%

Q: With `COc1ccc2c(c1)C(CCCN(C)CCc1ccc(OC)c(OC)c1)(c1ccc(C)cc1)CO2` (centres unmarked) [Example 5, 5-methoxy-3-(4-methylphenyl)-3-[3-(N-(3,4-dimethoxyphenethyl)-N-methylamino)-propyl]-2,3-dihydrobenzofuran] as the compound, how does the IC50 [1] read?
A: 26 µM

Q: Which IC50 [1] does the source give for `COc1ccc(CCN(C)CCCC2(c3ccccc3)c3cc(OC)c(OC)cc3OC2O)cc1OC` (centres unmarked) [Example 12, 2-hydroxy-5,6-dimethoxy-3-phenyl-3-[3-(N-(3,4-dimethoxyphenethyl)-N-methylamino)-propyl]-2,3-dihydrobenzofuran phosphate] here?
A: 8 µM

Q: With `CCN(CC)CCCC1(c2ccccc2)COc2ccc(OC)cc21` (centres unmarked) [Example 10, 5-methoxy-3-phenyl-3-[3-(N-diethylamino)-propyl]-2,3-dihydrobenzofuran] as the compound, how does the IC50 [1] read?
A: 6.1 µM

Q: With `COc1ccc2c(c1)C(CCCN1CCN(C)CC1)(c1ccccc1)CO2` (centres unmarked) [Example 9, 5-methoxy-3-phenyl-3-[3-(4-methyl-1-piperazinyl)-propyl]-2,3-dihydrobenzofuran] as the compound, how does the IC50 [1] read?
A: 35 µM

Q: `COc1ccc(CCN(C)CCCC2(c3ccccc3)COc3cc(OC)c(OC)cc32)cc1OC` (centres unmarked) [Example 3, 5,6-dimethoxy-3-phenyl-3-[3-(N-(3,4-dimethoxyphenethyl)-N-methylamino)-propyl]-2,3-dihydrobenzofuran] was tested. Which IC50 [1] did it give?
A: 90 µM

Q: How did the IC50 [1] turn out when `COc1ccc2c(c1)C(CCCN(C)CCc1ccc(OC)c(OC)c1)(c1ccccc1)C(O)O2` (centres unmarked) [Example 11, 2-Hydroxy-5-methoxy-3-phenyl-3-[3-(N-(3,4-dimethoxyphenethyl)-N-methylamino)-propyl]-2,3-dihydrobenzofuran phosphate] was run?
A: 6.2 µM

Q: Which IC50 [1] does the source give for `COc1cccc(N2CCN(CCCC3(c4ccccc4)COc4ccccc43)CC2)c1` (centres unmarked) [Example 16, 3-phenyl-3-[3-(4-(3-methoxyphenyl)-1-piperazinyl)-propyl]-2,3-dihydrobenzofuran] here?
A: 9 µM

Q: For `c1ccc(C2(CCCN3CCc4ccsc4C3)COc3ccccc32)cc1` (centres unmarked) [Example 14, 3-phenyl-3-[3-(1,2,6,7-tetrahydro-(2,3-c)-thieno-1-pyridinyl)-propyl]-2,3-dihydrobenzofuran], which IC50 [1] is on record?
A: 9 µM

Q: How did the IC50 [1] turn out when `c1ccc(C2(CCCN3CCOCC3)COc3ccccc32)cc1` (centres unmarked) [Example 15, 3-phenyl-3-[3-(4-morpholinyl)-propyl]-2,3-dihydrobenzofuran] was run?
A: 50 µM

Q: What does the source list for `COc1ccc(CCN(C)CCCC2(c3ccccc3)COc3ccccc32)cc1OC.O=P(O)(O)O` (centres unmarked) [Example 13, 3-phenyl-3-[3-(N-(3,4-dimethoxyphenethyl)-N-methylamino)-propyl]-2,3-dihydrobenzofuran phosphate]?
A: IC50 [1]: 4 µM; CBFM (coronary output), % change vs before treatment (mongrel dogs; 300 μg/kg intravenous): +31%; CRVM (mean coronary resistances), % change vs before treatment (mongrel dogs; 300 μg/kg intravenous): -36%; EB max (maximum bradycardic effect), % change vs before treatment (mongrel dogs; 300 μg/kg intravenous): -8%; PA (arterial pressure), % change vs before treatment (mongrel dogs; 300 μg/kg intravenous): -16%; CBFM (coronary output), % change vs before treatment (mongrel dogs; 1000 μg/kg intravenous): +59%; CRVM (mean coronary resistances), % change vs before treatment (mongrel dogs; 1000 μg/kg intravenous): -60%; EB max (maximum bradycardic effect), % change vs before treatment (mongrel dogs; 1000 μg/kg intravenous): -10%; PA (arterial pressure), % change vs before treatment (mongrel dogs; 1000 μg/kg intravenous): -31%

Q: For `COc1ccc2c(c1)C(CCCN(C)CCc1ccccc1)(c1ccccc1)CO2` (centres unmarked) [Example 8, 5-methoxy-3-phenyl-3-[3-(N-phenethyl-N-methylamino)-propyl]-2,3-dihydrobenzofuran], which IC50 [1] is on record?
A: 8.4 µM

Q: Which IC50 [1] does the source give for `COc1ccc2c(c1)C(CCCN(C)C1Cc3cc(OC)c(OC)cc3C1)(c1ccccc1)CO2` (centres unmarked) [Example 6, 5-methoxy-3-phenyl-3-[3-(N-(5,6-dimethoxy-2-indanyl)-N-methylamino)-propyl]-2,3-dihydrobenzofuran] here?
A: 10 µM
